The values that follow come from patent US10752584B2 (EMORY UNIVERSITY, priority 2016, dated 2020).

Holding throughout (format): cell-based
In one data set the test system is HBV e antigen (HBeAg). The experiment in a line: HBeAg ELISA in HepAD38 cells (cccDNA-dependent marker). As to conditions: Hepatitis B virus, HePAD38, 336 h. The method, then: Production of secreted HBeAg is predominantly cccDNA-dependent in HepAD38 cells and therefore can serve as a surrogate marker for cccDNA (Ladner, S. K., Otto, M. J., Barker, C. S., Zaifert, K., Wang, G. H., Guo, J. T., Seeger, C., King, R. W. Antimicrob Agents Chemother 1997, 41, 1715-1720; Zhou T, Guo H, Guo J T, Cuconati A, Mehta A, Block T M. Antiviral Res. 2006; 72 (2): 116-24.). The effect on the levels of cccDNA formation was assessed using a cell-based assay that measures HBV e antigen (HBeAg) as a cccDNA-dependent marker in the HepAD38 system. HepAD38 cells were seeded at 50,000 cells/well in collagen-coated 96-well plates with DMEM/F12 medium (Life Technologies) supplemented with 10% heat-inactivated fetal bovine serum. Cells were treated with 0.3 μg/ml tetracycline as needed. Test compounds and controls were added to cells to a final concentration of 10 μM or in a dose response manner ranging from 0.001 to 10 μM. Medium and test compounds were replenished every 5 days in culture. Supernatants were harvested at day-14, clarified by centrifugation at 5000 rpm for 5 min, and stored at −70° C. until use. ELISA—Culture medium was diluted 1:15 in DMEM/F12 and the levels of HBeAg secreted in the culture medium were measured by using HBeAg ELISA kit (BioChain Institute Inc. Hayward, Calif.) according to the manufacturer's protocol. The concentration of compound that reduced levels of secreted HBeAg by 50% (EC50) was determined by linear regression.

Data set [1] in a line: Cellular toxicity assay in Vero cells. As to conditions: African green monkey, read-out: Cytotoxicity. A digest of the protocol:
(§1)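 Toxicity in cells was measured across a concentration range. Negative controls were untreated cells given solvent, while cycloheximide served as the cytotoxic reference. Values are IC50s by median-effect analysis.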

The next data set has as its system HepG2 cells. The experiment in a line: Lactic acid production in HepG2 cells. As to conditions: 14-day assay. As for the experimental part:
To measure the effects of the compounds on lactic acid production, HepG2 cells from a stock culture were diluted and plated in 12-well culture plates at 2.5×10^4 cells per well. Various concentrations (0 μM, 0.1 μM, 1 μM, 10 μM and 100 μM) of compound were added, and the cultures were incubated at 37° C. in a humidified 5% CO2 atmosphere for 4 days. At day 4, the number of cells in each well was determined and the culture medium collected. The culture medium was then filtered, and the lactic acid content in the medium was determined using a colorimetric lactic acid assay (Sigma-Aldrich). Since lactic acid product can be considered a marker for impaired mitochondrial function, elevated levels of lactic acid production detected in cells grown in the presence of test compounds would indicate a drug-induced cytotoxic effect.
(§2) The effect of compounds 7 and 9 on the levels of mitochondrial and nuclear DNA, and lactic acid production was evaluated in HepG2 cells (14-day assay), and the data is tabulated below in Table 2: […]

The nature of data set [2]: Cellular toxicity assay in CEM cells. As to conditions: human, CEM lymphoblastoid cells, read-out: Cytotoxicity. In outline: as §1
For data set [3], the system named is mitochondrial DNA (COXII gene) in HepG2 cells. Description: Mitochondrial toxicity assay in HepG2 cells: mitochondrial DNA. As to conditions: for MtDNA (% of control): human, 14 day.
For data set [4], the system named is nuclear DNA in HepG2 cells. Description: Mitochondrial toxicity assay in HepG2 cells: nuclear DNA. To be noted: Homo sapiens.
Description: A real-time PCR assay to accurately quantify mitochondrial DNA content has been developed (see Stuyver L J, Lostia S, Adams M, Mathew J S, Pai B S, Grier J, Tharnish P M, Choi Y, Chong Y, Choo H, Chu C K, Otto M J, Schinazi R F. Antiviral activities and cellular toxicities of modified 2′,3′-dideoxy-2′,3′-didehydrocytidine analogs. Antimicrob. Agents Chemother. 2002; 46: 3854-60). This assay was used in all studies described in this application that determine the effect of compounds on mitochondrial DNA content. In this assay, low-passage-number HepG2 cells were seeded at 5,000 cells/well in collagen-coated 96-well plates. Test compounds were added to the medium to obtain final concentrations of 0 μM, 0.1 μM, 10 μM and 100 μM. On culture day 7, cellular nucleic acids were prepared by using commercially available columns (RNeasy 96 kit; Qiagen). […] The mitochondrial cytochrome c oxidase subunit II (COXII) gene and the β-actin or rRNA gene were amplified from 5 μl of the eluted nucleic acids using a multiplex Q-PCR protocol with suitable primers and probes for both target and reference amplifications. For COXII the following sense, probe and antisense primers were used, respectively: 5′-TGCCCGCCATCATCCTA-3′, 5′-tetrachloro-6-carboxyfluorescein-[…]-TAMRA-3′ and 5′-[…]-3′. For exon 3 of the β-actin gene (GenBank accession number E01094) the sense, probe, and antisense primers are 5′-GCGCGGCTACAGCTTCA-3′, 5′-6-[…]-3′ and 5′-[…]-3′, respectively. The primers and probes for the rRNA gene are commercially available from Applied Biosystems. Since equal amplification efficiencies are obtained for all genes, the comparative CT method was used to investigate potential inhibition of mitochondrial DNA synthesis. The comparative CT method uses arithmetic formulas in which the amount of target (COXII gene) is normalized to the amount of an endogenous reference (the β-actin or rRNA gene) and is relative to a calibrator (a control with no drug at day 7). The arithmetic formula for this approach is given by 2−ΔΔCT, where ΔΔCT is (CT for average target test sample CT for target control)−(CT for average reference test−CT for reference control) (see Johnson M R, K Wang, J B Smith, M J Heslin, R B Diasio. Quantitation of dihydropyrimidine dehydrogenase expression by real-time reverse transcription polymerase chain reaction. Anal. Biochem. 2000; 278:175-184). A decrease in mitochondrial DNA content in cells grown in the presence of drug indicated mitochondrial toxicity.
as §2

Where [5] appears, read: Homo sapiens, HepG2, 336 h, read-out: % inhibition MtDNA.

Regarding `C#CCNC(=O)C(=O)c1c(C)c(C(=O)Nc2ccc(F)c(F)c2)n(C)c1C` [Compound 7a, 4-[(Propargylamino)(oxo)acetyl]-N-(3,4-difluorophenyl)-1,3,5-trimethyl-1H-pyrrole-2-carboxamide], in the data set on HBV e antigen (HBeAg) (read-out: Anti-HBeAg activity EC50), the EC50 (commonly the concentration needed to bring the measured effect to its halfway point) was 8 nM. Moreover, the EC90 (as a rule, the point of the concentration-response curve where the effect stands at 90%) in the data set on HBV e antigen (HBeAg) (read-out: Anti-HBeAg activity EC90) came out at 580 nM. Moreover, the CC50 in data set [1] was greater than 90000 nM; in data set [2], greater than 100000 nM. Moreover, the entries for the “Lactic acid production (% of control)” value in the data set on HepG2 cells (10 μM), in the data set on HepG2 cells (25 μM) and in the data set with HepG2 cells (50 μM) were 103 ± 32.0 % of control, 106 ± 19.5 % of control and 193 ± 12.6 % of control, respectively. Besides, the inhibition – broadly, the drop in the measured response relative to a control, in per cent – at 25 µM is less than 1% in data set [3] (setting [5]) and less than 1% in data set [4] (336 h, HepG2 cells, 14-day assay, 25 μM, read-out: % inhibition nDNA). Moreover, the inhibition at 50 µM is 17.7% in data set [3] (setting [5]) and 13.1% in data set [4] (HepG2, 336 h, read-out: % inhibition nDNA). Further, the figures for the “MtDNA (% of control)” value in data set [3] (25 μM) and in data set [3] (50 μM) were 91.8 (80.2-105) % of control and 94.6 (73.8-121) % of control, respectively. Moreover, the IC50 (usually the concentration needed to halve the response being measured) in data set [4] (336 h, HepG2 cells, 14-day assay) is greater than 50000 nM. Also, the inhibition at 10 µM in data set [4] (336 h, HepG2 cells, 14-day assay, 10 μM, read-out: % inhibition nDNA) amounted to 5.4%.
